Reference: patent publication US6573293B2, “Pyrrole substituted 2-indolinone protein kinase inhibitors” (Sugen, Inc., priority 2000, dated 2003)

Key:
[1] = molecular target: T1, EGFR (Homo sapiens, UniProt P00533); experiment: EGFR bioassay (bio EGF); type: biochemical
T1 construct: A431 cell lysate (SUGEN, Inc.); host or cells: A431

[2] = molecular target: T1, EGFR; experiment: cell EGF assay; type: cell-based
Experimental: Several of the assays described herein are performed in an ELISA (Enzyme-Linked Immunosorbent Sandwich Assay) format (Voller, et al., 1980, “Enzyme-Linked Immunosorbent Assay,” Manual of Clinical Immunology, 2d ed., Rose and Friedman, Am. Soc. Of Microbiology, Washington, D.C., pp. 359-371). The general procedure is as follows: a compound is introduced to cells expressing the test kinase, either naturally or recombinantly, for a selected period of time after which, if the test kinase is a receptor, a ligand known to activate the receptor is added. The cells are lysed and the lysate is transferred to the wells of an ELISA plate previously coated with a specific antibody recognizing the substrate of the enzymatic phosphorylation reaction. Non-substrate components of the cell lysate are washed away and the amount of phosphorylation on the substrate is detected with an antibody specifically recognizing phosphotyrosine compared with control cells that were not contacted with a test compound.

[3] = molecular target: T2, PDGFR-β (Homo sapiens, UniProt P09619); experiment: PDGFR bioassay (bio PDGF); type: biochemical
T2 construct: host or cells: NIH 3T3
T2 sequence (P09619 33-1106): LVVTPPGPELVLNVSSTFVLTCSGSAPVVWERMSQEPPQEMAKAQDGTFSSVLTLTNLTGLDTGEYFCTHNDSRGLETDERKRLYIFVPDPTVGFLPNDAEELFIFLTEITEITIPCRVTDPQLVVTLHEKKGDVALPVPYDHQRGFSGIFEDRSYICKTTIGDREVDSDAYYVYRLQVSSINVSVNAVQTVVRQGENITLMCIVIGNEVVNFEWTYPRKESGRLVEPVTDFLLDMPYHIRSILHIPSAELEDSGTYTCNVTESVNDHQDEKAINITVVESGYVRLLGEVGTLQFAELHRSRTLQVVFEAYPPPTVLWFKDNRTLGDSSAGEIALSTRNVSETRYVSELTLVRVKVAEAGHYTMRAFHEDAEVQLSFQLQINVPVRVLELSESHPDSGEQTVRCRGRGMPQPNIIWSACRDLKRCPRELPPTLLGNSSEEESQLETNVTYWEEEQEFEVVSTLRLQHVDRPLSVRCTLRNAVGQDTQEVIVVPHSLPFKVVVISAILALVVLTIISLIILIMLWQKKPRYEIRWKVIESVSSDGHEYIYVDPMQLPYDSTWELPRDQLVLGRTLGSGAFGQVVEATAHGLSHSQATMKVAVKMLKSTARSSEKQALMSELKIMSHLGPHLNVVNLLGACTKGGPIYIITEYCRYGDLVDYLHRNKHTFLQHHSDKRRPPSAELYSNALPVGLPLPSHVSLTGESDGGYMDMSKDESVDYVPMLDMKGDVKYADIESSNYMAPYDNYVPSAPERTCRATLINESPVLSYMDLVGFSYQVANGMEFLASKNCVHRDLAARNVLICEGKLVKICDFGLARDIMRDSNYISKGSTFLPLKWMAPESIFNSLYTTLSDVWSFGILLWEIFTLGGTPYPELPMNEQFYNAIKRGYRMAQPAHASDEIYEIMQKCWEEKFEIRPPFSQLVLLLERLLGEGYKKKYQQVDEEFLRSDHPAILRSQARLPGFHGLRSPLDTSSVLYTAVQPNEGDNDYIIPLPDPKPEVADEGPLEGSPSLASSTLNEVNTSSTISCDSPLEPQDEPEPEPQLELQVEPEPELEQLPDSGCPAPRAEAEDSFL

[4] = molecular target: T3, HER-2 kinase (Homo sapiens, UniProt P04626); experiment: Cellular HER-2 kinase assay; type: cell-based; settings: read-out: Her2 Kinase IC50
T3 construct: Use EGFr/HER-2 chimera/3T3-C7 cell line for this assay; It is expressed in mouse NIH 3T3 clone C7 cells; P00533 (Epidermal growth factor receptor)
T3 sequence (P04626 720-987 limits assumed): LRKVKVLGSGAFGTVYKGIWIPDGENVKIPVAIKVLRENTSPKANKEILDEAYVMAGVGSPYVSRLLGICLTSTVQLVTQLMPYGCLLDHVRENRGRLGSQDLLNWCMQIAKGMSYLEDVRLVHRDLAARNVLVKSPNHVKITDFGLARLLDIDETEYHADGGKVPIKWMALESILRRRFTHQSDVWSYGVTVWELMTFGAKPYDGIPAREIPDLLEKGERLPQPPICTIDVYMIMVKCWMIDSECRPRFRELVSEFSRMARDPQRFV

[5] = molecular target: T4, GST-Flk1 (Mus musculus, UniProt P35918); experiment: GST-FLK-1 bioassay (bio flkGST); type: biochemical
T4 construct: GST-Flk1cd purified from sf9 recombinant baculovirus transformation; host or cells: Sf9 (baculovirus)
T4 sequence (P35918 784-1345 limits assumed): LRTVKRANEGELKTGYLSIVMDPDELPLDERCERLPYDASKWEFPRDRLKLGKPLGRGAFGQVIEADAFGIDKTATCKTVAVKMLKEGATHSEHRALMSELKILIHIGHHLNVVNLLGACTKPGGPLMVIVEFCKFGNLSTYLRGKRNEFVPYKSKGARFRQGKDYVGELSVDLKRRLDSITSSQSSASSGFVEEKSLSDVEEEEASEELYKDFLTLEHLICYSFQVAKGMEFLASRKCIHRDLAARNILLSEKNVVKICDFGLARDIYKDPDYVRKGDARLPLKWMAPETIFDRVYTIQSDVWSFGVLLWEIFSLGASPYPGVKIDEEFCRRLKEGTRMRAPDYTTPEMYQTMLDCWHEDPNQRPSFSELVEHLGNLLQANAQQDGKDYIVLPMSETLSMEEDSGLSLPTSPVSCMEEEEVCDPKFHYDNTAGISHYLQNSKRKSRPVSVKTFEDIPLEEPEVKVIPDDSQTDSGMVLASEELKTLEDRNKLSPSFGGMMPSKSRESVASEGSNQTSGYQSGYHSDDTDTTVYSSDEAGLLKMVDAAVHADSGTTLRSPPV

T1 sequence (P00533 25-1210): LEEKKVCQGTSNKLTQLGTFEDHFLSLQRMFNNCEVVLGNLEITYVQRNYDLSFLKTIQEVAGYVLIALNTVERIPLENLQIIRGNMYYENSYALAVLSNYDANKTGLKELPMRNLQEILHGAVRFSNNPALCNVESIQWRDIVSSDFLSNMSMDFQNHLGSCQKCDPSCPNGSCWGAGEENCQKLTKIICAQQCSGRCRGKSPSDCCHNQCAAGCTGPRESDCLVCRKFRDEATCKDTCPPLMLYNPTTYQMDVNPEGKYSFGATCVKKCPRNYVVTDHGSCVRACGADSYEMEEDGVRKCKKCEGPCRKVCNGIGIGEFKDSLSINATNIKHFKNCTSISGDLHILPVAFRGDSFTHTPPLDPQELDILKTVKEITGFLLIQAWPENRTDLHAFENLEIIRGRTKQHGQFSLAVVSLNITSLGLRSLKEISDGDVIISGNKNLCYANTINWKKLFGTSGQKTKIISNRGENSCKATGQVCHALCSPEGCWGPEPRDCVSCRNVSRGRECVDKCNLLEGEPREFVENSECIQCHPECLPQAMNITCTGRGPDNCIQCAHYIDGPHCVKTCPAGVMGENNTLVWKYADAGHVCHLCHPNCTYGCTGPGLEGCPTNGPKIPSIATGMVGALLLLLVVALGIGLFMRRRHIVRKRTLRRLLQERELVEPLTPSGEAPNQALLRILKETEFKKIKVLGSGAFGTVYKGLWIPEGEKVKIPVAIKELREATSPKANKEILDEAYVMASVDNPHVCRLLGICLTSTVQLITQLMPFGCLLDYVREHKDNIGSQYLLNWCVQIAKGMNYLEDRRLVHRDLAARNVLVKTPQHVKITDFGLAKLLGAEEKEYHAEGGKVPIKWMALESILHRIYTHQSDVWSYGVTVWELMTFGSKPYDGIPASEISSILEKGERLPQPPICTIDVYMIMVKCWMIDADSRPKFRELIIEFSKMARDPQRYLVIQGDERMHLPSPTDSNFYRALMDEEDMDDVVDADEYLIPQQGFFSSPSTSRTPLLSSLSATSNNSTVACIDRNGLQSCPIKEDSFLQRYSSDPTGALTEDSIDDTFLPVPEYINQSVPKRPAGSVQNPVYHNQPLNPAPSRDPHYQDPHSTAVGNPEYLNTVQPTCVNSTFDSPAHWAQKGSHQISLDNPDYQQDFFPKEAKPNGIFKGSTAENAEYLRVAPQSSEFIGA

Compound	IC50 [1] [µM]	IC50 [2] [µM]	IC50 [3] [µM]	IC50 [4] [µM]	IC50 [5] [µM]
Cc1[nH]c(/C=C2\C(=O)Nc3cc(-c4ccccc4)ccc32)c(C)c1C(=O)NCCN(C)C [Example 49, 2,4-Dimethyl-5-(2-oxo-6-phenyl-1,2-dihydroindol-3-ylidenemethyl)-1H-pyrrole-3-carboxylic acid (2-dimethylamino-ethyl)amide]	–	43.9	–	–	–
Cc1cc(C(=O)O)[nH]c1/C=C1\C(=O)N(C)c2ccccc21 [Example 2, 4-Methyl-5-(1-methyl-2-oxo-1,2-dihydroindol-3-ylidenemethyl)-1H-pyrrole-2-carboxylic acid]	> 100	> 100	> 100	–	> 100
Cc1[nH]c(/C=C2\C(=O)Nc3ccc(-c4ccccc4)cc32)c(C)c1C(=O)NCCCN(C)C [Example 66, 2,4-Dimethyl-5-(2-oxo-5-phenyl-1,2-dihydroindol-3-ylidenemethyl)-1H-pyrrole-3-carboxylic acid (3-dimethylamino-propyl)amide]	> 100	11.8	–	2.76	< 0.05
Cc1[nH]c(/C=C2\C(=O)Nc3ccc(Cl)cc32)c(C)c1C(=O)NCCN(C)C [Example 50, 5-(5-Chloro-2-oxo-1,2-dihydroindol-3-ylidenemethyl)-2,4-dimethyl-1H-pyrrole-3-carboxylic acid (2-dimethylamino-ethyl)amide]	–	20.3	–	–	–
Cc1[nH]c(/C=C2\C(=O)Nc3ccc(Br)cc32)c(C)c1C(=O)NCCCn1ccnc1 [Example 53, 5-(5-Bromo-2-oxo-1,2-dihydroindol-3-ylidenemethyl)-2,4-dimethyl-1H-pyrrole-3-carboxylic acid (3-imidazol-1-ylpropyl)amide]	> 100	> 100	< 0.78	> 100	–
Cc1[nH]c(/C=C2\C(=O)Nc3cc(-c4ccccc4)ccc32)c(C)c1C(=O)NCCN1CCCC1 [Example 60, 2,4-Dimethyl-5-(2-oxo-6-phenyl-1,2-dihydroindol-3-ylidenemethyl)-1H-pyrrole-3-carboxylic acid (2-pyrrolidin-1-yl-ethyl)amide]	> 100	> 100	< 0.78	> 100	–
Cc1[nH]c(/C=C2\C(=O)Nc3cc(-c4ccccc4)ccc32)c(C)c1C(=O)NCCCn1ccnc1 [Example 61, 2,4-Dimethyl-5-(2-oxo-6-phenyl-1,2-dihydroindol-3-ylidenemethyl)-1H-pyrrole-3-carboxylic acid (3-imidazol-1-ylpropyl)amide]	> 100	> 100	< 0.78	> 100	–
CCN(CC)CCCNC(=O)c1c(C)[nH]c(/C=C2\C(=O)Nc3cccc(C(=O)Nc4ccc(OC)c(Cl)c4)c32)c1C [Example 69, 3-[4-(3-Diethylamino-propylcarbamoyl)-3,5-dimethyl-1H-pyrrol-2-ylmethylene]-2-oxo-2,3-dihydro-1H-indole-4-carboxylic acid (3-chloro-4-methoxy-phenyl)amide]	–	97.5	56.5	–	0.3
CCCCc1ccc(-c2ccc3c(c2)NC(=O)/C3=C\c2[nH]c(C)c(C(=O)NCCN3CCCC3)c2C)cc1 [Example 75, 5-[6-(4-Butyl-phenyl)-2-oxo-1,2-dihydroindol-3-ylidenemethyl]-2,4-dimethyl-1H-pyrrole-3-carboxylic acid (2-pyrrolidin-1-yl-ethyl)amide]	> 100	–	61.6	> 100	2.7
CC(=O)c1c(/C=C2\C(=O)Nc3ccc(Br)cc32)[nH]c(C(=O)NCCN2CCOCC2)c1C [Example 34, 4-Acetyl-5-(5-bromo-2-oxo-1,2-dihydroindol-3-ylidenemethyl)-3-methyl-1H-pyrrole-2-carboxylic acid (2-morpholin-4-yl-ethyl)amide]	> 100	–	> 100	> 100	> 50
COc1ccccc1-c1ccc2c(c1)NC(=O)/C2=C\c1[nH]c(C)c(C(=O)NCCN(C)C)c1-c1ccccc1 [Example 45, 5-[6-(2-Methoxy-phenyl)-2-oxo-1,2-dihydroindol-3-ylidenemethyl]-2-methyl-4-phenyl-1H-pyrrole-3-carboxylic acid (2-dimethylamino-ethyl)amide]	–	30	–	–	1.71
CCc1ccc(-c2ccc3c(c2)NC(=O)/C3=C\c2[nH]c(C)c(C(=O)NCCN3CCCC3)c2C)cc1 [Example 77, 5-[6-(4-Ethyl-phenyl)-2-oxo-1,2-dihydroindol-3-ylidenemethyl]-2,4-dimethyl-1H-pyrrole-3-carboxylic acid (2-pyrrolidin-1-yl-ethyl)amide]	> 100	–	25	> 100	0.49

Continued, values first:

IC50 [1] [µM]	IC50 [2] [µM]	IC50 [3] [µM]	IC50 [4] [µM]	IC50 [5] [µM]	Compound
> 100	> 100	< 0.78	> 100	–	CCN(CC)CCNC(=O)c1c(C)[nH]c(/C=C2\C(=O)Nc3cc(-c4ccccc4)ccc32)c1C [Example 59, 2,4-Dimethyl-5-(2-oxo-6-phenyl-1,2-dihydroindol-3-ylidenemethyl)-1H-pyrrole-3-carboxylic acid (2-diethylaminoethyl)amide]
> 100	41.2	–	8	11.5	CCN(CC)CCNC(=O)c1[nH]c(/C=C2\C(=O)Nc3cc(-c4cccnc4)ccc32)c2c1CCCC2 [Example 20, 3-(2-Oxo-6-pyridin-3-yl-1,2-dihydroindol-3-ylidenemethyl)-4,5,6,7-tetrahydro-2H-isoindole-1-carboxylic acid (2-diethylaminoethyl)amide]
3.26	7.82	–	2.43	4.04	Cc1cc(C(=O)NCCCN2CCCC2)[nH]c1/C=C1\C(=O)Nc2ccc(Br)cc21 [Example 6, 5-(5-Bromo-2-oxo-1,2-dihydroindol-3-ylidenemethyl)-4-methyl-1H-pyrrole-2-carboxylic acid (3-pyrrolidin-1-ylpropyl)amide]
6.86	34.2	–	8.37	7.5	O=C1Nc2ccc(Br)cc2/C1=C/c1[nH]c(C(=O)NCCCN2CCCC2)c2c1CCCC2 [Example 19, 3-(5-Bromo-2-oxo-1,2-dihydroindol-3-ylidenemethyl)-4,5,6,7-tetrahydro-2H-isoindole-1-carboxylic acid (3-pyrrolidin-1-ylpropyl)amide]
80.4	–	> 100	54.1	> 20	CC(=O)c1c(/C=C2\C(=O)Nc3ccc(Br)cc32)[nH]c(C(=O)NCCN2CCCC2)c1C [Example 35, 4-Acetyl-5-(5-bromo-2-oxo-1,2-dihydroindol-3-ylidenemethyl)-3-methyl-1H-pyrrole-2-carboxylic acid (2-pyrrolidin-1-yl-ethyl)amide]
5.11	–	19.2	3.01	3.33	COc1ccc(C(C)C)cc1-c1ccc2c(c1)NC(=O)/C2=C\c1[nH]c(C)c(C(=O)NCCN2CCCC2)c1C [Example 76, 5-[6-(5-Isopropyl-2-methoxy-phenyl)-2-oxo-1,2-dihydroindol-3-ylidenemethyl]-2,4-dimethyl-1H-pyrrole-3-carboxylic acid (2-pyrrolidin-1-yl-ethyl)amide]
53.7	–	71.3	2.67	4.5	Cc1c(C(=O)NCCCN2CCCC2)[nH]c(/C=C2\C(=O)Nc3ccc(F)cc32)c1C(=O)c1ccccc1 [Example 28, 4-Benzoyl-5-(5-fluoro-2-oxo-1,2-dihydroindol-3-ylidenemethyl)-3-methyl-1H-pyrrole-2-carboxylic acid (3-pyrrolidin-1-ylpropyl)amide]
23.9	9.76	–	7.02	1.98	COc1ccccc1-c1ccc2c(c1)NC(=O)/C2=C\c1[nH]c(C)c(C(=O)NCCN(C)C)c1C [Example 54, 5-[6-(2-Methoxy-phenyl)-2-oxo-1,2-dihydroindol-3-ylidenemethyl)-2,4-dimethyl-1H-pyrrole-3-carboxylic acid (2-dimethylamino-ethyl)amide]
8.17	–	81.9	2.66	> 20	CCN(CC)CCCNC(=O)c1[nH]c(/C=C2\C(=O)Nc3ccc(Br)cc32)cc1C [Example 13, 5-(5-Bromo-2-oxo-1,2-dihydroindol-3-ylidenemethyl)-3-methyl-1H-pyrrole-2-carboxylic acid (3-diethylaminopropyl)amide]
2.57	9.23	–	4.99	2.67	CCN(CC)CCCNC(=O)c1[nH]c(/C=C2\C(=O)Nc3ccc(Br)cc32)c2c1CCCC2 [Example 18, 3-(5-Bromo-2-oxo-1,2-dihydroindol-3-ylidenemethyl)-4,5,6,7-tetrahydro-2H-isoindole-1-carboxylic acid (3-diethylaminopropyl)amide]
